The values below come from ChEMBL document CHEMBL2016479, “Lead optimization of 4,4-biaryl piperidine amides as γ-secretase inhibitors” (Bioorg Med Chem Lett, 2012).

In brackets after ≈: the same amount, converted by molar mass.

Series [1] has as its target Gamma-secretase. The series is described as follows: Inhibition of gamma-secretase in human SH-SY5Y cells co-expressing APP C-terminal fragment SPA4CT assessed as inhibition of amyloid beta 42 production by electrochemiluminescent assay. It is filed as cell-based.
For series [2], the target named is Gamma-secretase. Kind of series: Inhibition of gamma-secretase in human SH-SY5Y cells co-expressing APP C-terminal fragment SPA4CT assessed as inhibition of amyloid beta 40 production by electrochemiluminescent assay. It is filed as cell-based.
The nature of series [3]: Plasma clearance in Sprague-Dawley rat at 0.05 mg/kg, iv. It counts as ADME, organism-based. More on the design: dose 0.05 mg/kg, route intravenous.
Series [4] is described as follows: Drug uptake in APP-YAC transgenic mouse brain at 100 mg/kg, po after 6 hrs. It counts as ADME, organism-based. More on the design: dose 100 mg/kg, route oral. Conditions: read-out: Drug uptake.
Series [5] is described as follows: Drug uptake in APP-YAC transgenic mouse plasma at 100 mg/kg, po after 6 hrs. It counts as ADME, organism-based. More on the design: dose 100 mg/kg, route oral.
Series [6] in a line: Volume of distribution at steady state in Sprague-Dawley rat at 0.05 mg/kg, iv. It is filed as ADME, organism-based. The arrangement: dose 0.05 mg/kg, route intravenous. Conditions: in vivo, read-out: Vdss.
Another series deals with Mus musculus. Kind of series: Anti-Alzheimer's disease activity in APP-YAC transgenic mouse model assessed as reduction in amyloid beta 42 production at 100 mg/kg, po. It counts as functional.
The nature of series [7]: Ratio of permeability from apical to basolateral side over basolateral to apical side in […] expressing human MDR1. It is filed as ADME, cell-based.
A short description of series [8]: Solubility of the compound. It counts as physicochemical.
Series [9] is described as follows: Half life in Sprague-Dawley rat at 0.05 mg/kg, iv. It counts as ADME, organism-based. Conditions: in vivo. The arrangement: dose 0.05 mg/kg, route intravenous.
Series [10] is described as follows: Lipophilicity, log D of the compound. It is filed as physicochemical. Conditions: octanol/water.
Series [11] can be described thus: Apparent permeability of the compound. It counts as ADME. Conditions: not told.
The nature of series [12]: (§1) AUC in Sprague-Dawley rat at 0.05 mg/kg, iv. More on the design: dose 0.05 mg/kg, route intravenous. Conditions: Sprague-Dawley, plasma. It is filed as ADME, organism-based, Plasma.
A further series relates to Rattus norvegicus. The description is as §1. It counts as ADME, organism-based, Plasma. More on the design: dose 0.05 mg/kg, route intravenous. Conditions: in vivo.

For orientation: IC50 means the concentration that gives 50% inhibition. The clearance is a measure of how efficiently the substance is removed, as volume per time. Low values mean a low capacity for elimination, high ones a high capacity for elimination. In general, inhibition in vivo refers to the change of the read-out against control, counted positive when it falls. By solubility is commonly meant the concentration that dissolves in the medium under given conditions. Usually half-life stands for how long it takes for the measured level to halve. In general, logD refers to lipophilicity at a set pH, counting ionised and neutral species. A word on the Papp: it is the rate of passage across a membrane or cell layer, normalised by area and donor concentration. A word on the AUC: it is the area under the concentration-time curve, a measure of exposure. Read a high AUC as high exposure.

With `O=C(N1CCC(c2cc(F)ccc2F)(S(=O)(=O)c2ccc(Cl)cc2)CC1)C1(C(F)(F)F)CCCC1`, the figures for the half-inhibitory concentration (IC50) on Gamma-secretase [1] and on Gamma-secretase [2] were 110 nM and 140 nM, respectively. For the same compound, the clearance in [3] is above 84 mL/min/kg.
Regarding `O=C(N1CC[C@](c2cc(F)ccc2F)(S(=O)(=O)c2ccc(Cl)cc2)[C@H](O)C1)C1(C(F)(F)F)CC1` (racemic), the concentration at 6 h stood at 7060 nM in series [4] and 11100 nM in series [5]. In addition, the Vd in [6] turned out to be 1.65 L. Also, in the series on Mus musculus, the inhibition in vivo at 100 mg/kg came to 76%. Besides, the Ratio in series [7] was found to be 1.2. The same compound gave a solubility in series [8] of 174 µM (≈ 91.1 µg/mL). The concentration for half-maximal inhibition (IC50) at Gamma-secretase [1] and at Gamma-secretase [2] was 40 nM each time. The half-life in series [9] is 1.6 h. In addition, in series [10], the pH-dependent lipophilicity (logD) is 3.27. Also, the apparent permeability (Papp) in series [11] turned out to be 31.1 ×10⁻⁶ cm/s. Further, the AUC in series [12] came out at 3.51 µM·h.
For the compound `COC(=O)C1(C(=O)N2CCC(c3cc(F)ccc3F)(S(=O)(=O)c3ccc(Cl)cc3)CC2)CC1`, the IC50 on Gamma-secretase [1] worked out at 50 nM; at Gamma-secretase [2], 100 nM. Besides, in [3], the clearance is above 84 mL/min/kg.
Taken in the same sequence, the figures for `COc1ccc2c(C(=O)N3CCC(c4cc(F)ccc4F)(S(=O)(=O)c4ccc(Cl)cc4)CC3)cn(C)c2c1` were 70 nM, 90 nM and above 84 mL/min/kg.
On to `O=C(CCC(F)(F)F)N1CCC(c2cc(F)ccc2F)(S(=O)(=O)c2ccc(Cl)cc2)CC1`, for which the IC50 at Gamma-secretase [1] turned out to be 420 nM; on Gamma-secretase [2], 400 nM.
In the case of `CC1(C(=O)N2CCC(c3cc(F)ccc3F)(S(=O)(=O)c3ccc(Cl)cc3)CC2)COC1`, the IC50 worked out at 640 nM on Gamma-secretase [1] and 880 nM on Gamma-secretase [2].
Taken in the same sequence, the figures for `O=C(N1CC[C@](c2cc(F)ccc2F)(S(=O)(=O)c2ccc(Cl)cc2)[C@@H](O)C1)C1(C(F)(F)F)CC1` (single isomer, unassigned; 11c) were 2390 nM and 1790 nM.
Turning to `O=C(N1CC[C@](c2cc(F)ccc2F)(S(=O)(=O)c2ccc(Cl)cc2)[C@@H](O)C1)C1(C(F)(F)F)CC1` (single isomer, unassigned; 11b), the half-maximal inhibitory concentration (IC50) at Gamma-secretase [1] and at Gamma-secretase [2] was 90 nM throughout.
In the case of `O=C(c1ccccc1C(F)(F)F)N1CCC(c2cc(F)ccc2F)(S(=O)(=O)c2ccc(Cl)cc2)CC1`, the 50% inhibitory concentration (IC50) at Gamma-secretase [1] worked out at 210 nM; at Gamma-secretase [2] it was 260 nM. This compound registered a clearance in series [3] of 31.9 mL/min/kg.
On the same counts, the results for `O=C(c1cnccc1C(F)(F)F)N1CCC(c2cc(F)ccc2F)(S(=O)(=O)c2ccc(Cl)cc2)CC1` are 110 nM, 130 nM and above 84 mL/min/kg.
As for `CC(C)(O)C(=O)N1CCC(c2cc(F)ccc2F)(S(=O)(=O)c2ccc(Cl)cc2)CC1`, the values for the IC50 at Gamma-secretase [1] and at Gamma-secretase [2] were 120 nM and 130 nM, respectively. This compound registered a clearance in series [3] of 75.1 mL/min/kg.
On the same counts, the results for `CC1(C(=O)N2CCC(c3cc(F)ccc3F)(S(=O)(=O)c3ccc(Cl)cc3)CC2)CC1` are 50 nM, 70 nM and above 84 mL/min/kg.
With `O=C(N1CC[C@](c2cc(F)ccc2F)(S(=O)(=O)c2ccc(Cl)cc2)[C@@H](O)C1)C1(C(F)(F)F)CC1` (racemic), the IC50 on Gamma-secretase [1] came to 190 nM; at Gamma-secretase [2], 250 nM.
Regarding `O=C(N1CC[C@](c2cc(F)ccc2F)(S(=O)(=O)c2ccc(Cl)cc2)[C@H](O)C1)C1(C(F)(F)F)CC1` (single isomer, unassigned; 12b), the results for the IC50 at Gamma-secretase [1] and at Gamma-secretase [2] were 80 nM and 110 nM, respectively.
With `Cn1ccnc1C(=O)N1CCC(c2cc(F)ccc2F)(S(=O)(=O)c2ccc(Cl)cc2)CC1`, the IC50 at Gamma-secretase [1] worked out at 160 nM; on Gamma-secretase [2], 200 nM. In series [3], the clearance was above 84 mL/min/kg.
On the same counts, the results for `Cn1nc(C(F)(F)F)c(C(=O)N2CCC(c3cc(F)ccc3F)(S(=O)(=O)c3ccc(Cl)cc3)CC2)c1Cl` are 190 nM, 230 nM and 79 mL/min/kg.
With `O=C(N1CCC(c2cc(F)ccc2F)(S(=O)(=O)c2ccc(Cl)cc2)CC1)C1(C(F)(F)F)CCCCC1`, the IC50 on Gamma-secretase [1] turned out to be 180 nM; on Gamma-secretase [2], 220 nM.
Turning to `O=C(N1CC[C@](c2cc(F)ccc2F)(S(=O)(=O)c2ccc(Cl)cc2)[C@H](O)C1)C1(C(F)(F)F)CC1` (single isomer, unassigned; 12c), the IC50 on Gamma-secretase [1] and at Gamma-secretase [2] was 10 nM in each case. The compound further showed a clearance in series [3] of 5.7 mL/min/kg.
For `COc1ccc2c(C(=O)N3CCC(c4cc(F)ccc4F)(S(=O)(=O)c4ccc(Cl)cc4)CC3)c[nH]c2c1`, the half-inhibitory concentration (IC50) at Gamma-secretase [1] is 80 nM; on Gamma-secretase [2], 270 nM. This compound also displayed a clearance in series [3] above 84 mL/min/kg.
Turning to `O=C(c1cnc(Cl)nc1C(F)(F)F)N1CCC(c2cc(F)ccc2F)(S(=O)(=O)c2ccc(Cl)cc2)CC1`, the half-maximal inhibitory concentration (IC50) on Gamma-secretase [1] and at Gamma-secretase [2] was above 10000 nM in each case.
`O=C(c1ncccc1C(F)(F)F)N1CCC(c2cc(F)ccc2F)(S(=O)(=O)c2ccc(Cl)cc2)CC1`: the 50% inhibitory concentration (IC50) is 50 nM at Gamma-secretase [1] and 70 nM on Gamma-secretase [2]. The compound further registered a clearance in series [3] of 80.5 mL/min/kg.
Take `O=C(N1CCC(c2cc(F)ccc2F)(S(=O)(=O)c2ccc(Cl)cc2)CC1)C1(C(F)(F)F)CC1`: the concentration at 6 h in series [4] turned out to be 1180 nM; in series [5] it was 650 nM. Besides, the Vd in [6] was found to be 3.1 L. For the same compound, the inhibition in vivo at 100 mg/kg with Mus musculus worked out at 37%. Besides, the Ratio in series [7] came out at 0.9. This compound registered a solubility in series [8] of 26.8 µM (≈ 13.6 µg/mL). The half-maximal inhibitory concentration (IC50) at Gamma-secretase [1] and on Gamma-secretase [2] was 30 nM each time. This compound also gave a half-life in [9] of 3.5 h. This compound displayed a logD in series [10] of 3.76. Further, the Papp in [11] amounted to 37.3 ×10⁻⁶ cm/s. The compound also came in with an exposure (AUC) with Rattus norvegicus of 1.19 µM·h.
On to `O=C(N1CCC(c2cc(F)ccc2F)(S(=O)(=O)c2ccc(Cl)cc2)CC1)C1(C(F)(F)F)CCC1`, for which the IC50 on Gamma-secretase [1] was determined as 60 nM; at Gamma-secretase [2] it was 70 nM. The same compound yielded a clearance in [3] of 46.2 mL/min/kg.
In the case of `O=C(CC(F)(F)F)N1CCC(c2cc(F)ccc2F)(S(=O)(=O)c2ccc(Cl)cc2)CC1`, the half-inhibitory concentration (IC50) on Gamma-secretase [1] was determined as 90 nM; on Gamma-secretase [2], 80 nM. Besides, in series [3], the clearance is above 84 mL/min/kg.
As to `Cn1cc(C(=O)N2CCC(c3cc(F)ccc3F)(S(=O)(=O)c3ccc(Cl)cc3)CC2)c(C(F)(F)F)n1`, the values for the concentration at 6 h in [4] and in [5] were 520 nM and 1780 nM, respectively. In addition, the Vd in series [6] turned out to be 11.3 L. Also, the inhibition in vivo at 100 mg/kg with Mus musculus was 17%. The Ratio in series [7] worked out at 1.8. Further, the concentration in solution in [8] (solubility) was 30.6 µM (≈ 16.8 µg/mL). The IC50 on Gamma-secretase [1] turned out to be 120 nM; on Gamma-secretase [2], 160 nM. Besides, the half-life in series [9] was 2.05 h. In series [10], this compound returned a pH-dependent lipophilicity (logD) of 3.36. The compound also registered a clearance in [3] above 84 mL/min/kg. Moreover, the Papp in series [11] amounted to 30.7 ×10⁻⁶ cm/s. The same compound returned an AUC in [12] of 0.23 µM·h.
For the compound `O=C(c1cnc(Cl)cc1C(F)(F)F)N1CCC(c2cc(F)ccc2F)(S(=O)(=O)c2ccc(Cl)cc2)CC1`, the IC50 on Gamma-secretase [1] came to 970 nM; on Gamma-secretase [2], 1090 nM.
